Reference: ChEMBL document CHEMBL1201862, “PubChem BioAssay data set” (2004)
Activity calls are given as the source filed them.

Legend:
[1] = Luminescent dose response cell-based high throughput screening assay for inhibitors of the Janus kinase 2 mutant JAK2V617F. [Related pubchem assays: 1446 (Primary screen.), 1521 (Confirmation assay.), 1486 (Counter screen.)]; type: functional
[2] = viability of PTEN-deleted HCT116 cells – cell-based, HCT116 PTEN knockout, dose response (AID 1047); type: functional;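 also: HCT116 colon tumor cells with PTEN knocked out; cells exposed to compound for 60 hours before readout; potency for loss of cell viability measured by luminescence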
[3] = viability of HCT116 lacking mutant beta-catenin – cell-based, human colon tumor, dose response (AID 1045); type: functional;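 also: HCT116 colon tumor cells with beta catenin knocked out; cells exposed to compound for 60 hours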
[4] = Intein inhibitors as potential Tuberculosis drugs, a cytotoxicity screen. [Related pubchem assays (depositor defined):AID2221, AID2223, AID434968, AID435010, AID449749, AID449750, AID489010]; type: functional
[5] = target: T1, Replicative DNA helicase DnaB (Mycobacterium tuberculosis, UniProt P9WMR3); assay: DnaB intein splicing inhibitors, dose response, biochemical, cell-free fluorescence (AID 449749); type: functional
T1 sequence (P9WMR3 whole entry): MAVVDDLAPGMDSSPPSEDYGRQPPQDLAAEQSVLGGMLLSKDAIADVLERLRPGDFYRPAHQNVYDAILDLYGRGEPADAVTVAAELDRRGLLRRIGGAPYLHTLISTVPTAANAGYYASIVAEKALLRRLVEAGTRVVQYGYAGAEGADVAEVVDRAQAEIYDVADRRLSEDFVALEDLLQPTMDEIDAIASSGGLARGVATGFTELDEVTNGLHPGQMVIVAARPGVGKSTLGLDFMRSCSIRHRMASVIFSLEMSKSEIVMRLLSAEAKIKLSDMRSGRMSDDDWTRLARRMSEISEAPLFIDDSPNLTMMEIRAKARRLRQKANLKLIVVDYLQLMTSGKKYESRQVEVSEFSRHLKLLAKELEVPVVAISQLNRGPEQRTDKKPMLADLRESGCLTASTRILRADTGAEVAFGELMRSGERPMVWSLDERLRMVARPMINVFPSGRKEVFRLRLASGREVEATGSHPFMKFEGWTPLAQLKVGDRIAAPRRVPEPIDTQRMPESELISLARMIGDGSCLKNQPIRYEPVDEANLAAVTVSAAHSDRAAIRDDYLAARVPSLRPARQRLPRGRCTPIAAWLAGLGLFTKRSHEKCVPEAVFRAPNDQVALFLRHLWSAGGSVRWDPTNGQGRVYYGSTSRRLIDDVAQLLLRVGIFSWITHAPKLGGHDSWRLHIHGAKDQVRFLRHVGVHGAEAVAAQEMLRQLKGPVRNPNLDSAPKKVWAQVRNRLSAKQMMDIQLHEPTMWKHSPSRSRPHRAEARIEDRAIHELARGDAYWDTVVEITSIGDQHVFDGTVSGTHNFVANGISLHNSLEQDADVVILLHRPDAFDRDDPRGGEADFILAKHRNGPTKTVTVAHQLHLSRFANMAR

BJ = assay: growth inhibition of engineered Ras-driven BJ cells – cell-based, alamar blue fluorescence, cherrypicked samples, dose response (AID 2631); type: functional; conditions: Homo sapiens;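 also: confirmatory dose-response assay in RAS-dependent BJ fibroblasts engineered with TERT, LT and ST, with cytotoxicity read by fluorescence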
Protein RecA = target: T2, Protein RecA (Mycobacterium tuberculosis, UniProt P9WHJ3); assay: Fluorescence Cell-Free Homogeneous Dose Retest to Identify Inhibitors of RecA-Intein Splicing Activity. [Related pubchem assays (depositor defined):AID2097, AID2223, AID489010, AID492950]; type: functional
T2 sequence (P9WHJ3 whole entry): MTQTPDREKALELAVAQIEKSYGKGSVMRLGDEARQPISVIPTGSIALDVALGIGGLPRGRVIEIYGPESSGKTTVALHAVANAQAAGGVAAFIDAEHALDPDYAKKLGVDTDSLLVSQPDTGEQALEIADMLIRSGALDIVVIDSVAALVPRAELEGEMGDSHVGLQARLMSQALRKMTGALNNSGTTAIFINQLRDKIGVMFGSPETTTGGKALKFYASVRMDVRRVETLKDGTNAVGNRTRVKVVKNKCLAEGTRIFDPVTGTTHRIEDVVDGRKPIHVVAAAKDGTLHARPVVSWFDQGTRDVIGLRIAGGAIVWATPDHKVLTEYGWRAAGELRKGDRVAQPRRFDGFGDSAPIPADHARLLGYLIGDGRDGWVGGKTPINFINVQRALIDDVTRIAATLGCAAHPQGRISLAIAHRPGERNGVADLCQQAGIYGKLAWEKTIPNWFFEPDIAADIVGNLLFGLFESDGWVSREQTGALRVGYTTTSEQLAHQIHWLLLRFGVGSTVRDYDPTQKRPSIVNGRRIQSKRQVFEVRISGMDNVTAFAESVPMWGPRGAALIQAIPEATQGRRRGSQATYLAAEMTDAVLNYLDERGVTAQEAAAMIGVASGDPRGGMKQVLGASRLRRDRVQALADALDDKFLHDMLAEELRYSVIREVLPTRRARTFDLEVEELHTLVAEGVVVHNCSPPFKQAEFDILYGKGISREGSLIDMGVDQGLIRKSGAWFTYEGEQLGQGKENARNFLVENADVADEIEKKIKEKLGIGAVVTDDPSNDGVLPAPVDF

[6] = target: DNA dC->dU-editing enzyme APOBEC-3A (Homo sapiens, UniProt P31941); assay: A3A deaminase inhibition for selectivity – biochemical, dose response (AID 504722); type: functional
Chain of DNA dC->dU-editing enzyme APOBEC-3A (P31941 whole entry): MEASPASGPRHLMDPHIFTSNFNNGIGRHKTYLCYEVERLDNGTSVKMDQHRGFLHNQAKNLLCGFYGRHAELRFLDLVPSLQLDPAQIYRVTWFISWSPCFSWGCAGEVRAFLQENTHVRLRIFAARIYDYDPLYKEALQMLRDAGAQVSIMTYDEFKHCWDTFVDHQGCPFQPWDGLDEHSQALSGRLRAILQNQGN

[7] = target: DNA dC->dU-editing enzyme APOBEC-3G (Homo sapiens, UniProt Q9HC16); assay: Dose Response confirmation of small molecule APOBEC3G DNA Deaminase Inhibitors via a fluorescence-based single-stranded DNA deaminase assay. [Related pubchem assays (depositor defined):AID493012, AID493028]; type: functional
Chain of DNA dC->dU-editing enzyme APOBEC-3G (Q9HC16 whole entry): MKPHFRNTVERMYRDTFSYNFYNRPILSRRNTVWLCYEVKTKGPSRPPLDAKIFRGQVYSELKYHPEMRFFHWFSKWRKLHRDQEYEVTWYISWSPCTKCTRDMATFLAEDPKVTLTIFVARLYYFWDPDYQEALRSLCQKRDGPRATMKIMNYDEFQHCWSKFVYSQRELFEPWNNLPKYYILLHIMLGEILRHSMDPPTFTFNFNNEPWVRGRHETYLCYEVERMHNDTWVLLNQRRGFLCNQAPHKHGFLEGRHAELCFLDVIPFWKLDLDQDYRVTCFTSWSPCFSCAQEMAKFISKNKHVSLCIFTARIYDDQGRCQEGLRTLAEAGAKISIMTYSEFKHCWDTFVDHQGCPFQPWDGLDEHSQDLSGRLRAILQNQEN

[8] = HGIII-sPLA2 enzyme inhibition potency – biochemical, QFRET, IC50, dose response (AID 743457);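 also: green fluorescence rise as the enzyme cleaves BODIPY PC-A2 in liposomes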
[9] = HIV-1 Vif–A3G interaction blockers – biochemical, TR-FRET, GST-Vif 1-94, biotin-A3G peptide, dose response retest, primary screen (AID 1117319); type: functional;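 also: TR-FRET signal of purified GST-Vif binding a biotinylated A3G peptide; inhibitors lower the FRET signal by blocking Vif and A3G binding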
[10] = Late stage assay provider results from the probe development effort to identify selective inhibitors of heat shock protein 90 (HSP90): Absorbance-based cell proliferation assay in SKBR3 cells.; type: functional; conditions: SK-BR-3
[11] = Late stage assay provider results from the probe development effort to identify selective inhibitors of heat shock protein 90 (HSP90): Absorbance-based cell proliferation assay in MCF7 cells.; type: functional
[12] = target: Glutathione-S-transferase (Schistosoma japonicum, UniProt Q26513); assay: GST-antibody interaction or FRET quenching – biochemical, TR-FRET, artefact control for Vif-APOBEC3G degradation inhibitor project, dose response (AID 1117362); type: functional
Chain of Glutathione-S-transferase (Q26513 whole entry): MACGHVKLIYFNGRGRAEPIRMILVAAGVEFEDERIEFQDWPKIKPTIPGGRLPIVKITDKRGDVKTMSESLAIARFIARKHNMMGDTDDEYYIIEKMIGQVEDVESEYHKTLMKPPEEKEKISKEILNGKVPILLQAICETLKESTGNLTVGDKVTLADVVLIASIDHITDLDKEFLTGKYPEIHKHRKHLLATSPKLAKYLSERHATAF

[13] = rise of 2N DNA cells, HeLa – IC50, dose response (AID 1117349); type: functional, cell-based
[14] = CellTiter-Glo luminescence survival assay, SW480 colon tumor line, concentration-response curve, half-maximal inhibitory concentration (AID 1117338); type: functional
[15] = RKO cell viability reduction, dose response, CellTiter-Glo luminescence (AID 1117322); type: functional
[16] = cytotoxicity toward HCT116 cells – cell-based, CellTiter-Glo luminescence, IC50, dose response (AID 1117332); type: functional; conditions: HCT-116
[17] = SNU-C1 cell viability reduction, dose response, CellTiter-Glo luminescence (AID 1117323); type: functional, cell-based
[18] = cytotoxicity toward Colo320 cells – cell-based, CellTiter-Glo luminescence, IC50, dose response (AID 1117334); type: functional; conditions: COLO 320
[19] = rise of 4N DNA cells, HeLa – IC50, dose response (AID 1117351); type: functional, cell-based
[20] = cytotoxicity toward HT-29 cells – cell-based, CellTiter-Glo luminescence, IC50, dose response (AID 1117330); type: functional
[21] = Reduced DLD-1 viability, concentration-response, CellTiter-Glo luminescence (AID 1117352); type: functional
[22] = HCT116 cell viability decrease, GSK3B pretreatment – CellTiter-Glo, IC50, dose response (AID 1117339); type: functional; conditions: HCT-116
[23] = blockers of HIV-1 envelope-mediated cell-cell fusion – cherry-pick, dose response (AID 652057); type: functional, cell-based
Paired box protein Pax-8 = Paired box protein Pax-8 (Homo sapiens, UniProt Q06710); assay: PAX8 transcriptional activity inhibition in RMG-I – RMG-I cells, luciferase, cherry-pick, dose response (AID 687027); type: functional, cell-based;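 also: luciferase reporter driven by Pax8 target thyroperoxidase promoter measured by SteadyGlo luminescence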
Chain of Paired box protein Pax-8 (Q06710 whole entry, the tested form may be a part): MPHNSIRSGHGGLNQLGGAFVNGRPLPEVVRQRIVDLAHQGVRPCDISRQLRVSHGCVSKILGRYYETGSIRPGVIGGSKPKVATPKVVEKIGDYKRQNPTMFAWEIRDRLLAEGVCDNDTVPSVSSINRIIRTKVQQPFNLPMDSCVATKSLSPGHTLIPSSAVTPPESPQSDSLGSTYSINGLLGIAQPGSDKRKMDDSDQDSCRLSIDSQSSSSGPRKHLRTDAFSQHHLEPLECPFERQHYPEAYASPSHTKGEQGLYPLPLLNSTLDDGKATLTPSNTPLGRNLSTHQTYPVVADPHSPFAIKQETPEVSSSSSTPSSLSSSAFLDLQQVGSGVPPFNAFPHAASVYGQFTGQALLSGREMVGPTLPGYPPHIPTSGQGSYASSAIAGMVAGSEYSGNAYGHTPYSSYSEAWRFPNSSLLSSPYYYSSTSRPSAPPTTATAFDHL

[24] = HIV-1 AD8 envelope cell-cell fusion blockers – cherry-pick, dose response (AID 652062); type: functional, cell-based;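 also: luciferase signal from cell-cell fusion driven by HIV-1 clade B AD8 Env; potency is for inhibitors of fusion seen as a drop in luminescence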
[25] = inhibitors acting on PAX2 in cells – cell-based, plate reader, dry powder samples, selectivity assay for PAX8 inhibitor project, dose response (AID 743048); type: functional;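 also: HEK293 cells carrying a WT1 promoter luciferase reporter driven by expressed Pax2; potency is for inhibition of Pax2 driven reporter signal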
[26] = PAX5 cellular inhibition readout – cell-based, plate reader, dry powder samples, selectivity assay for PAX8 inhibitor project, dose response (AID 743047); type: functional;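 also: HEK293 cells carrying a Pax5 driven CD19 promoter luciferase reporter; potency of inhibitors that lower reporter luminescence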
[27] = OVCAR4 cell viability loss – plate reader, dry powder, SA11, cytotoxicity control for PAX8 inhibitor project, dose response (AID 743150); type: functional, cell-based; conditions: OVCAR-4
[28] = COV434 cell viability loss – plate reader, dry powder, SA7, cytotoxicity control for PAX8 inhibitor project, dose response (AID 743145); type: functional, cell-based
[29] = OV-90 cell viability loss – plate reader, dry powder, SA8, PAX8 inhibitor project, dose response (AID 743149); type: functional, cell-based
[30] = PAX8-dependent cell viability loss – plate reader, dry powder, dose response (AID 743049); type: functional, cell-based
Galanin receptor type 3 = Galanin receptor type 3 (Homo sapiens, UniProt O60755); assay: Fluorescence-based cell-based primary high throughput dose response assay to identify antagonists of the Galanin Receptor 3 (GalR3).; type: functional
Chain of Galanin receptor type 3 (O60755 whole entry): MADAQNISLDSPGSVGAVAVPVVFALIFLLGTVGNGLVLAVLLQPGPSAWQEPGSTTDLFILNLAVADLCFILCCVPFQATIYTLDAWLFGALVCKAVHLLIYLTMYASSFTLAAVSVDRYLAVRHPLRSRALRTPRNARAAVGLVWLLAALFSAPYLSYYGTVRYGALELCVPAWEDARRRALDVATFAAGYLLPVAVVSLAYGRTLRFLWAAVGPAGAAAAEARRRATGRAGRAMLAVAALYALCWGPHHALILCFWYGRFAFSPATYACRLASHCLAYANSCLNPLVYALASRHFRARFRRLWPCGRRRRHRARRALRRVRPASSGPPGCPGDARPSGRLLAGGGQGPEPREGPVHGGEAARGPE

cells = type: functional, cell-based; conditions: HEK-CNG
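For CC50 in this document: cells exposed to compound for 72 hours before luminescence readout.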

COc1cccc(N(C(=O)CCl)C(C(=O)NCCc2ccccc2)c2cccs2)c1 (stereo unspecified)
IC50 [1]: 0.581 µM (active) | EC50 [2]: 1.59 µM (active) | EC50 [3]: 1.48 µM (active) | CC50 [4]: 0.2 µM (active) | AC50 [5]: 2.11 µM (active) | EC50 (BJ): 3.95 µM (active) | EC50 (Protein RecA): 0.329 µM (active)

CCn1c(S)nnc1-c1cc2c(C(F)(F)F)nn(C)c2s1
IC50 [6]: > 100 µM (inactive) | IC50 [7]: 3.06 µM (active) | IC50 [8]: > 122 µM (inactive)

CCOc1ccc(N/C([S-])=C(/C(=O)c2ccc(C)c([N+](=O)[O-])c2)[n+]2ccccc2)cc1
IC50 [9]: > 100 µM (active)

COc1ccc2cc(Br)c(=O)oc2c1
IC50 [10]: > 100 µM (inactive) | IC50 [11]: > 100 µM (inactive)

O=C(COC(=O)C12CC3CC(CC(Br)(C3)C1)C2)Nc1ccc2[nH]c(O)nc2c1
IC50 [12]: 73.5 µM (active) | IC50 [9]: > 100 µM (active)

CCCCCCCCCCCC[N+](C)(C)Cc1ccccc1
IC50 [13]: > 10 µM (inactive) | IC50 [14]: 7.95 µM (inactive) | IC50 [15]: 3.07 µM (active) | IC50 [16]: 1.96 µM (active) | IC50 [17]: 0.02 µM (active) | IC50 [18]: 8.99 µM (inactive) | IC50 [19]: > 10 µM (inactive) | IC50 [20]: 0.465 µM (active) | IC50 [21]: 0.738 µM (active) | IC50 [22]: > 20 µM (inactive)

N#C[C@@H]1[C@H](c2ccc(-c3ccccc3F)cc2)[C@@H](CO)N1C(=O)Cc1ccccc1
AC50 [23]: 35 µM (active) | AC50 (Paired box protein Pax-8): 17.3 µM (active) | AC50 [24]: 19.8 µM (active) | AC50 [25]: 23.8 µM (active) | AC50 [26]: 26.2 µM (active) | AC50 [27]: 30.4 µM (active) | AC50 [28]: > 70 µM (inactive) | AC50 [29]: 56.2 µM (active) | AC50 [30]: 20.3 µM (active)

N#Cc1cc(-c2ccccc2)oc1NC(=O)c1ccco1
IC50 (Galanin receptor type 3): 8.23 µM (active) | EC50 (cells): > 29.9 µM (inactive)
